Data set [1] relates to S. cerevisiae strain FY250.
Source text: The plasmids encoding the LexA- and B42-fusion proteins were introduced in all necessary combinations into S. cerevisiae strain FY250 containing a plasmid encoding the lacZ reporter plasmid.
All of these experiments have been done as plate assays. The toxicity of the ligand and receptor is judged simply by seeing if either induction of the receptor fusions or application of the ligand to the plate impairs cell growth.
The test system of the next data set is GR fusion proteins. Particulars: cited from earlier work.

The source of these data is patent US20020168685A1, “Covalent chemical inducers of protein dimerization and their uses in high throughput binding screens” (priority 2001, published 2002).

In the case of `C[C@@H]1C[C@H]2[C@@H]3CCC4=CC(=O)C=C[C@]4(C)[C@@]3(F)[C@@H](O)C[C@]2(C)[C@@]1(O)C(=O)CO` [DEX, Dexamethasone], the “toxicity (impaired cell growth)” value in data set [1] was “neither DEX nor GR are toxic”. Further, in the data set with GR fusion proteins, the cell permeability entry is given as “cell permeable” and the “modification or breakdown in the cell” value is on record as “not modified or broken down in the cell”.
